Experimental data reported in patent publication EP4631938A1, “NITROGEN-CONTAINING HETEROCYCLE WITH SEROTONIN RECEPTOR-BINDING ACTIVITY AND CARBOCYCLIC DERIVATIVE” (Shionogi & Co., Ltd, priority 2022, dated 2024).
Where two headings read alike, the source gives them in different places.

Columns and labels:
[1] = molecular target: T1, human recombinant 5-HT2A receptor (Homo sapiens, UniProt P28223); experiment: Test Example 1-2: 5-HT2A receptor binding inhibition test ([3H]-Ketanserin; non-specific ligand Ketanserin)
T1 construct: expressed in transfected cells; host or cells: Jump-In HEK cells (membrane preparation)
How it was run: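 Ki values were derived from dose-response inhibition of [3H]-ketanserin binding; nonspecific binding was set with 500 µmol/L ketanserin, and Kd was set for each membrane lot from Scatchard saturation plots. Incubation lasted 1.5 h at room temperature (25 °C). Bound radioligand was harvested on Tris-HCl (pH 7.4)-presoaked filters and counted.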

[2] = molecular target: T2, human recombinant 5-HT2C receptor (Homo sapiens, UniProt P28335); experiment: Test Example 2-2: 5-HT2C receptor binding inhibition test ([3H]-Mesulergine; non-specific ligand Ketanserin); details: non-specific binding with 500 µmol/L Ketanserin, 37°C, 2 hours
T2 construct: expressed in transfected cells; host or cells: Jump-In HEK cells (membrane preparation)
T2 sequence (P28335 33-458): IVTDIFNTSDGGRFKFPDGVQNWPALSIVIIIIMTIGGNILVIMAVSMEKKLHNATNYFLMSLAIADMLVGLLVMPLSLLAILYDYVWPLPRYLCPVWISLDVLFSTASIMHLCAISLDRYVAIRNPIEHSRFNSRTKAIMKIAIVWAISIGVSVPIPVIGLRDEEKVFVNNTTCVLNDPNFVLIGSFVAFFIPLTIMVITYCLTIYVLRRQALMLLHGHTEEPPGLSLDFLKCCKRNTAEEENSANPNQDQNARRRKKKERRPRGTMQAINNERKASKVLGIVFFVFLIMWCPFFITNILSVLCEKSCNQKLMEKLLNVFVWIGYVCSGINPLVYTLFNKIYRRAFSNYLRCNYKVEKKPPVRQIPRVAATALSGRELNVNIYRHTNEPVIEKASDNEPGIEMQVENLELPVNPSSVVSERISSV
Description: The Kd value is calculated when the lot of the cell membrane is changed. 1 mmol/L non-specific binding calculating compound dissolved in DMSO or DMSO is previously dispensed to the microplate by 0.5 µL, and the cell membrane is diluted with an Assay buffer. The radioactive ligand solution is diluted step by step, and counts are checked with a liquid scintillator. The Assay buffer containing diluted cell membranes is dispensed by 50 µL/well into the microplate. The radioactive ligand solution is then dispensed by 50 µL/well into the microplate and the plate is sealed. The microplate is allowed to stand at 37°C for 2 hours. During this time, 50 mmol/L Tris-HCl (pH 7.4) is dispensed by 50 µL/well into the UniFilter plate and allowed to stand at 4°C for 1 hour or longer. Thereafter, filtration is performed with a Cell Harvester (PerkinElmer). The radioactive ligand solution is dispensed by 10 µL/well into empty wells of the UniFilter plate. After drying the UniFilter plate at room temperature, MicroScinti20 is dispensed by 50 µL/well into the UniFilter plate, and the plate is sealed. UniFilter plate is allowed to stand at room temperature overnight. The radioactivity of [^3H]-Mesulergine bound to the 5-HT2C receptor is measured using Microbeta2 (PerkinElmer) at a measurement time of 1 min/well. The Saturation curve is drawn from the measured value, and the Kd value is calculated from the slope of the Scatchard Plot.
A compound solution dissolved in DMSO is dispensed to a microplate by 0.5 µL, and a cell membrane and a hot ligand are each diluted with an Assay buffer. The Assay buffer containing diluted cell membrane is then dispensed by 50 µL/well into the microplate. The radioactive ligand solution is then dispensed by 50 µL/well into the microplate and the plate is sealed. The microplate is then allowed to stand at 37°C for 2 hours. During this time, 50 mmol/L Tris-HCl (pH 7.4) is dispensed by 50 µL/well into the UniFilter plate and allowed to stand at 4°C for 1 hour or longer. Thereafter, filtration is performed with a Cell Harvester (PerkinElmer). After drying the UniFilter plate at room temperature, MicroScinti20 is dispensed by 50 µL/well into the UniFilter plate, and the plate is sealed. UniFilter plate is allowed to stand at room temperature overnight. The radioactivity of [^3H]-Mesulergine bound to the 5-HT2C receptor is measured using Microbeta2 (PerkinElmer) at a measurement time of 1 min/well. Non-specific binding is calculated from the radioactivity of [^3H]-Mesulergine in the presence of 500 µmol/L Ketanserin of unlabeled ligand, and total binding is calculated from the radioactivity of [^3H]-Mesulergine in the absence of the compound of the present invention (Vehicle). Finally, the Ki value is calculated from the dose-response curve.
(The binding activity of the compound according to the present invention is calculated from the following binding inhibition rate (%).) Inhibition rate (%) = [1−(c−a)/(b−a)] × 100 [formula] • a; average cpm of non-specific binding • b; average cpm of total binding • c; cpm in the presence of the test compound
The compounds of the present invention were tested essentially as described above.

[3] = [3H]-Ketanserin, non-specific binding with 500 µmol/L Ketanserin, room temperature (25°C), 1.5 hours, read-out: h 5-HT2A Ki

T1 sequence (P28223 whole entry): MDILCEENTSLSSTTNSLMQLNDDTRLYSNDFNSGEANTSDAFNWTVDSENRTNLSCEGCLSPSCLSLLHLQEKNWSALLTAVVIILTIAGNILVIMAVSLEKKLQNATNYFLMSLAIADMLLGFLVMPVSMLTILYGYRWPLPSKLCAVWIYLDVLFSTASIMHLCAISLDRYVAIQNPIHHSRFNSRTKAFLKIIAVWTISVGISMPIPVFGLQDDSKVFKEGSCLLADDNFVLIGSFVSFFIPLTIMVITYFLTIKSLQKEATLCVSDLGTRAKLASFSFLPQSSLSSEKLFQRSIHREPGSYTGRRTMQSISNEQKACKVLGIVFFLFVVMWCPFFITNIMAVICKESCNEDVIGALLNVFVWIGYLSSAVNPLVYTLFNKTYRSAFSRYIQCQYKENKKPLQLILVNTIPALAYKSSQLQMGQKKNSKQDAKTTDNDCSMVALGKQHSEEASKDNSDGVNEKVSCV

Row | Ki [1, 3] [nM] | Ki [2] [nM] | Compound | Ki [1] [nM]
1 | 0.354 | 0.52 | Cn1ncc(Br)c1-c1cc(Nc2ncc(Cl)cc2F)c(F)cc1OCCO [Compound I-152] | 
2 | 0.286 | 0.636 | Cn1ncc(Br)c1-c1cc(Nc2nc3ccccc3s2)ccc1OCCO [Compound I-029] | 
3 | 0.894 | 7.89 | OCCOc1ccc(Nc2ncc(C(F)(F)F)cc2F)cc1-c1ccnc(F)c1Cl [Compound I-026] | 
4 | 0.25 | 3.7 | Cc1ccc(-c2cc(Nc3ncc(C(F)(F)F)cc3F)ccc2OCCO)c(C)n1 [Compound I-025] | 
5 | 0.163 | 1.25 | Cn1ncc(Br)c1-c1cc(Nc2ncc(C(F)(F)F)cn2)cnc1OCCO [Compound I-131] | 
6 | 0.403 | 0.196 | OCCOc1ccc(Nc2ncc(C(F)(F)F)cc2F)cc1-c1c(Br)cnn1C1CC1 [Compound I-067] | 
7 | 0.291 | 1.25 | C=Cc1cnn(C)c1-c1cc(Nc2ncc(C(F)(F)F)cc2F)ccc1OCCO [Compound I-053] | 
8 | 0.289 | 1.4 | Cn1ncc(Br)c1-c1cc(Nc2ncc(C#N)s2)ccc1OCCO [Compound I-037] | 
9 | 0.295 | 1.88 | Cn1ncc(Br)c1-c1cc(Nc2ncc(C(F)(F)F)cn2)ncc1OCCO [Compound I-159] | 
10 | 0.267 | 8.31 | Cc1cnn(C)c1-c1cc(Nc2ncc(Cl)cc2F)ncc1OCCO [Compound I-088] | 
11 | 0.269 | 0.195 | Cn1ncc(Cl)c1-c1cc(Nc2ncc(C(F)(F)F)cc2F)cnc1OCCO [Compound I-142] | 
12 | 0.274 | 2.76 | Cn1ncc(Br)c1-c1cc(Nc2nc3ccc(F)cc3n2C)ccc1OCCO [Compound I-092] | 
13 | 0.209 | 4.96 | Cc1cnc(Nc2ccc(OCCO)c(-c3c(Br)cnn3C)c2)s1 [Compound I-028] | 
14 | 0.319 | 0.245 | Cn1ncc(Br)c1-c1cc(Nc2ncc(-c3ccccc3)s2)ccc1OCCO [Compound I-039] | 
15 | 0.207 | 4.26 | Cn1ncc(Br)c1-c1cc(Nc2cc(C(F)(F)F)ccn2)ccc1OCCO [Compound I-047] | 
16 | 0.203 | 0.575 | Cn1ncc(Br)c1-c1cc(Nc2ccc(Cl)cn2)ccc1OCCO [Compound I-090] | 
17 | 0.266 | 0.415 | Cn1ncc(Br)c1-c1cc(Nc2ncc(Cl)cc2F)ccc1OCCO [Compound I-017] | 
18 | 0.133 | 4.55 | OCCOc1ccc(Nc2ncc(C(F)(F)F)cc2F)cc1-c1ccncc1Cl [Compound I-011] | 
19 | 0.236 | 0.843 | Cc1cnn(C2CC2)c1-c1cc(Nc2ncc(C(F)(F)F)cc2F)ccc1OCCO [Compound I-074] | 
20 | 0.318 | 2.6 | Cn1ncc(C#N)c1-c1cc(Nc2ncc(Cl)cc2F)ccc1OCCO [Compound I-051] | 
21 | 0.259 | 4.75 | Cc1noc(C)c1-c1cc(Nc2ncc(C(F)(F)F)cc2F)c(F)cc1OCCO [Compound I-147] | 
22 | 0.163 | 0.313 | Cn1ncc(Br)c1-c1cc(Nc2ccc(C3CC3)cn2)ccc1OCCO [Compound I-048] | 
23 | 0.283 | 0.325 | Cn1ncc(Br)c1-c1cc(Nc2ccc(C3CCC3)cn2)ccc1OCCO [Compound I-093] | 
24 | 0.175 | 1.16 | Cn1ncc(Br)c1-c1cc(Nc2ncc(Cl)s2)ccc1OCCO [Compound I-040] | 

Row | Ki [1, 3] [nM] | Ki [2] [nM] | Compound | Ki [1] [nM]
25 | 0.559 | 3.18 | Cc1nc(C)c(-c2cc(Nc3ncc(Cl)cc3F)ccc2OCCO)c(C)n1 [Compound I-098] | 
26 | 0.211 | 3 | Cn1ncc(Br)c1-c1cc(Nc2nc3cnccc3s2)ccc1OCCO [Compound I-076] | 
27 | 0.292 | 0.206 | Cn1ncc(Br)c1-c1cc(Nc2ccc(C(F)(F)F)cn2)c(F)cc1OCCO [Compound I-151] | 
28 | 0.259 | 2.32 | Cc1ncnc(C)c1-c1cc(Nc2ccc(OC(F)(F)F)cn2)ccc1OCCO [Compound I-124] | 
29 | 0.202 | 0.457 | Cn1ncc(Br)c1-c1cc(Nc2ccc(C(F)(F)F)cn2)cnc1OCCO [Compound I-081] | 
30 | 0.332 | 1.1 | Cn1ncc(Br)c1-c1cc(Nc2ncc(F)cc2F)c(F)cc1OCCO [Compound I-154] | 
31 | 0.265 | 7.3 | Cn1ncc(C#N)c1-c1cc(Nc2ccc(Cl)cn2)ccc1OCCO [Compound I-102] | 
32 | 0.241 | 6.37 | Cn1ncc(C#N)c1-c1cc(Nc2ncc(C(F)(F)F)cc2F)cnc1OCCO [Compound I-087] | 
33 | 0.341 | 1.66 | Cn1cnc(Br)c1-c1cc(Nc2ncc(Cl)cc2F)ccc1OCCO [Compound I-096] | 
34 | 0.236 | 5 | Cn1ncc(Br)c1-c1cc(Nc2ncc(Cl)cn2)cnc1OCCO [Compound I-132] | 
35 | 0.205 | 8.84 | Cn1ncc(F)c1-c1cc(Nc2ncc(Cl)cc2F)ccc1OCCO [Compound I-086] | 
36 | 0.158 | 0.184 | Cn1ncc(Br)c1-c1cc(Nc2ccc(OC(F)F)cn2)ccc1OCCO [Compound I-060] | 
37 | 0.318 | 1.33 | COC(=O)c1cnc(Nc2ccc(OCCO)c(-c3c(Br)cnn3C)c2)c(F)c1 [Compound I-046] | 
38 | 0.36 | 6.04 | Cn1ncc(C#N)c1-c1cc(Nc2ccc(C(F)(F)F)cn2)c(F)cc1OCCO [Compound I-125] | 
39 | 0.295 | 3.09 | Cn1ncc(Br)c1-c1cc(Nc2ncc(Cl)c3ccccc23)ccc1OCCO [Compound I-113] | 
40 | 0.351 | 9.13 | Cc1ncnc(C)c1-c1cc(Nc2ccc(Cl)cn2)ccc1OCCO [Compound I-103] | 
41 | 0.155 | 8.83 | Cn1ncc(Br)c1-c1cc(Nc2nc3ccccc3o2)ccc1OCCO [Compound I-041] | 
42 | 0.302 | 0.213 | Cn1ncc(Br)c1-c1cc(Nc2nc3ccc(F)cc3s2)ccc1OCCO [Compound I-070] | 
43 | 0.197 | 8.99 | Cn1ncc(Br)c1-c1cc(Nc2ccc(C(F)F)cn2)ccc1OCCO [Compound I-091] | 
44 | 2.54 | 2.35 | Cc1cnn(C)c1-c1cc(Nc2ncc(C(F)(F)F)cc2F)c(Oc2ccn(C)n2)cc1OCCO [Compound I-035] | 
45 | 0.81 | 5.59 | Cc1nc(C)c(-c2cc(Nc3ccc(Cl)cn3)ccc2OCCO)c(C)n1 [Compound I-123] | 
46 | 0.263 | 1.1 | Cn1ncc(Br)c1-c1cc(Nc2nc3cc(Cl)ccc3[nH]2)ccc1OCCO [Compound I-078] | 
47 | 0.45 | 30 | Cn1nccc1-c1cc(Nc2ncc(C(F)(F)F)cc2F)ncc1OCCO [Compound I-059] | 
48 | 0.167 | 0.277 | Cn1ncc(Cl)c1-c1cc(Nc2ncc(Cl)cc2F)ccc1OCCO [Compound I-136] | 

Row | Compound | Ki [1, 3] [nM] | Ki [2] [nM] | Ki [1] [nM]
49 | Cn1ncc(C#N)c1-c1cc(Nc2ncc(C(F)(F)F)cc2F)c(Cl)cc1OCCO [Compound I-109] |  | 15.4 | 0.598
50 | Cn1ncc(Br)c1-c1cc(Nc2ncc(C(F)(F)F)cc2F)cnc1OCCO [I-082] |  | 0.358 | 0.184
